Reference: patent publication US20230248671A1, “USE OF BETA-1 ADRENERGIC RECEPTOR ANTAGONIST FOR PREPARING COMPOSITIONS FOR REDUCING EPITHELIAL CELL DAMAGE INDUCED BY EPIDERMAL GROWTH FACTOR RECEPTOR INHIBITORS AND INHIBITING CANCER CELLS” (CHANG GUNG MEMORIAL HOSPITAL, LINKOU, priority 2020, published 2023)

How the values were obtained:
[1] = test system: A549 cancer cells (EGFR-mutated lung cancer cells); test: MTT test (cell viability) on A549 cancer cells; assay type: cell-based
Procedure: (§1) A fixed number (7×10^4 cells/dish) of HaCaT cells (human skin keratinocytes) were seeded in each well of a multi-well plate (24 wells). […] MTT (3-(4,5-dimethylthiazol-2-yl)-2,5-diphenyltetrazolium bromide and 300λ bromide-3-(4,5-dimethyl-2-thiazole)-2,5-diphenyltetrazolium) were added and 1 hour later, the supernatant was removed, DMSO was added and the resultant was shook. 200 λ/well of liquid was extracted and added into another multi-well plate (96 wells). ELISA was used to measure the absorbance value (OD570, optical density 570 nm) and calculate the cell cell viability. The experiment was repeated 3 times.
(§2) The effect of EGFR-TKI alone and the simultaneous administration of a β-1 adrenergic receptor antagonist and an EGFR-TKI on cancer cells was examined.
(§3) The effects on HaCaT cells as well as A549 cancer cells was examined.

in vitro = details: human
Procedure: as §1
(§4) The MTT test was carried out to examine the effect of β-1 adrenergic receptor antagonists on epithelial cells.
(§5) The MTT test was carried out to examine the effect of first administering β-1 adrenergic receptor antagonist followed by EGFR-TKI on epithelial cells.
(§6) A MTT test was conducted to examine the effect of simultaneously administering a β-1 adrenergic receptor antagonist and an EGFR-TKI on epithelial cells. […] Referring to FIG. 4, FIG. 4 is a schematic diagram showing the c epithelial cell viability after simultaneously contacting an EGFR-TKI and a β-1 adrenergic receptor antagonist with normal epithelial cells.
as §3

[2] = test system: PC9 cancer cell (EGFR-mutated cancer cell); details: afatinib and betaxolol administered simultaneously
Procedure: as §1, §2

[3] = test system: HaCaT cells (human skin keratinocytes); test: in vitro
Procedure: as §1, §4, §5, §6, §3

[4] = test system: EGFR monoclonal antibody-induced papulopustular rash; details: 0.25% (w/w) topical, day 30 of treatment
Procedure: (§7) Patients with EGFR-TKI or anti-EGFR monoclonal antibodies induced epithelial cell damage, for example, rosacea or papulopustular rash, were recruited. A composition comprising β-1 adrenergic receptor antagonist was formulated for topical use, and was administered to recruited patients to observe its therapeutic effect.

EGFRI-induced rosacea = details: 0.25% (w/w) topical
Procedure: as §7

Compound: CN(C)C/C=C/C(=O)Nc1cc2c(Nc3ccc(F)c(Cl)c3)ncnc2cc1O[C@H]1CCOC1 [Afatinib, afatinib]
- viability at 1 µM ([1]; Homo sapiens, A549): 101%
- viability at 2.5 µM ([1]; Homo sapiens, A549): 100%
- viability at 5 µM ([1]; Homo sapiens, A549): 85.2%
- viability at 10 µM ([1]; Homo sapiens, A549): 73.4%
- viability at 20 µM ([1]; Homo sapiens, A549): 69.1%
- viability at 50 µM ([1]; Homo sapiens, A549): 26.4%
- viability at 24 h, 0.1 μM (in vitro): 90.6%
- viability at 24 h, 0.5 μM (in vitro): 89.8%
- viability at 24 h, 1 μM (in vitro): 87.2%
- viability at 24 h, 2.5 μM (in vitro): 64.1%
- viability at 24 h, 5 μM (in vitro): 34.8%

Compound: CC(C)NCC(O)COc1ccc(CCOCC2CC2)cc1 (centres unmarked) [Betaxolol, betaxolol]
- inhibitory effect and cytotoxicity on PC9 compared with afatinib only [2]: inhibitory effect is better and cytotoxicity is higher
- inhibitory effect and cytotoxicity on A549 compared with afatinib only ([1]; afatinib and betaxolol together): inhibitory effect was better and cytotoxicity is higher
- A549 cancer cell viability, betaxolol only ([1]; cells only in contact with betaxolol): 100%
- HaCaT cell viability compared with afatinib only ([3]; betaxolol and afatinib added simultaneously, 24 hours): much improved
- effect on cell viability of normal epithelial cells (in words) ([3]; betaxolol only, up to 100 μM): basically does not affect the cell viability
- viability at 24 h, 10 μM (in vitro; Cell viability (%)): 92.8%
- viability at 24 h, 20 μM (in vitro; Cell viability (%)): 91.3%
- viability at 24 h, 40 μM (in vitro; Cell viability (%)): 91.4%
- viability at 24 h, 80 μM (in vitro; Cell viability (%)): 90.1%
- viability at 24 h, 100 μM (in vitro; Cell viability (%)): 88.1%
- viability at 24 h (in vitro; HaCaT cell viability, β-1 adrenergic receptor antagonist only): 100%
- improvement of papules and pustules of Cetuximab-induced papulopustular rash [4]: significantly improved
- improvement of osimertinib-induced rosacea (EGFRI-induced rosacea; 4th day of treatment): significantly improved
- improvement of rosacea (FIG. 12) (EGFRI-induced rosacea; 7th day of treatment): improved significantly
- improvement of afatinib-induced rosacea (EGFRI-induced rosacea; 14th day of treatment compared to the 1st day): significantly improved

Compound: CC(C)(C)NC[C@H](O)COc1nsnc1N1CCOCC1 [timolol, Timolol]
- A549 cancer cell viability (change, in words) ([1]; timolol and afatinib simultaneously): did not change significantly
- A549 cancer cell viability (change, in words) ([1]; timolol increased to 50 μM, with afatinib): also increased
- HaCaT cell viability compared with afatinib only ([3]; afatinib concentration fixed, timolol concentration adjusted): significantly decreased
